Measurements from patent US20230295152A1 (SENDA BIOSCIENCES, INC., priority 2019, published 2023).

Assay: Hepatocyte Stability Assay, human
Assay type: in vitro ADME
Conditions: cryopreserved hepatocytes in suspension; human hepatocytes; read-out: Human hepatocyte clearance
Experimental: • Preparation of working solutions: 10 mM stock solutions of test compound and positive control were prepared in DMSO. In separate conical tubes, the 10 mM solution of test compound and the positive control were diluted to 100 μM by combining 198 μL of 50% acetonitrile/50% water and 2 μL of 10 mM stock.
Preparation of Hepatocytes: Incubation medium (William's E Medium supplemented with GlutaMAX) and hepatocyte thawing medium were placed in a 37° C. water bath and allowed warming for at least 15 minutes prior to use. A vial of cryopreserved hepatocytes was transferred from storage, ensuring that vials remained at cryogenic temperatures until thawing process ensued. Cells were thawed by placing the vial in a 37° C. water bath and gently shaking the vials for 2 minutes. After thawing was completed, vial was sprayed with 70% ethanol and transferred to a biosafety cabinet. Wide-bore pipette tip were used to transfer hepatocytes into 50 mL conical tube containing thawing medium. The 50 mL conical tube were placed into a centrifuge and spun at 100 g for 10 minutes. Upon completion of spin, thawing medium was aspirated and resuspended hepatocytes in enough incubation medium to yield ˜1.5×10^6 cells/mL. Using an AO/PI Staining, cells were counted and the viable cell density was determined. Cells with poor viability (<75% viability) were determined to be not acceptable for use. Cells were diluted with incubation medium to a working cell density of 0.5×10^6 viable cells/mL.
Procedure for Stability Determination: 198 μL of hepatocytes were pipetted into each wells of a 96-well non-coated plate. The plate was placed in the incubator to allow the hepatocytes to warm for 10 minutes. 2 μL of the 100 μM test compound or positive control solutions were pipetted into respective wells of the 96-well non-coated plate to start the reaction. The plate was returned to the incubator for the designed time points. Well contents was transferred in 25 μL aliquots at time points of 0, 15, 30, 60, 90 and 120 minutes. The aliquots were then mixed with 6 volumes (150 μL) of acetonitrile containing internal standard, IS (100 nM alprazolam, 200 nM caffeine and 100 nM tolbutamide) to terminate the reaction. The mixture was vortex for 5 minutes. Samples were centrifuged for 45 minutes at 3,220 g. An aliquot of 100 μL of the supernatant was diluted by 100 μL ultra-pure water, and the mixture was used for LC/MS/MS analysis. All incubations were performed in duplicate.
Data Analysis: All calculations were carried out using Microsoft Excel. Peak areas were determined from extracted ion chromatograms. In vitro half-life (t1/2) of parent compound was determined by regression analysis of the percent parent disappearance vs. time curve.
The in vitro half-life (in vitro t1/2) was determined from the slope value:
Conversion of the in vitro t1/2 (in min) into the in vitro intrinsic clearance (in vitro CLint, in μL/min/1×10^6 cells) was done using the following equation (mean of duplicate determinations):
V=incubation volume(0.2 mL);
N=number of hepatocytes per well(0.1×10^6 cells).
“+++” indicates a CLint value less than 20 mL/min/Kg, “++” indicates a CLint between 20 and 50 mL/min/Kg, and “+” indicates an CLint above 50 mL/min/Kg.

Row | CLint scaled at 1 μM [mL/min/kg] | SMILES
1 | < 20 | C[C@@H](CO)n1cnc2c(-c3cnn(C)c3)nc(-c3ccc(OC(F)(F)F)cc3)cc2c1=O [Compound 25]
2 | < 20 | C[C@H](n1cnc2c(-c3cccnc3)nc(-c3cccnc3)cc2c1=O)C(C)(C)O [Compound 34]
3 | 20 to 50 | C[C@@H](CO)n1cnc2c(-c3cccnc3)nc(-c3ccc(OC(F)(F)F)nc3)cc2c1=O [Compound 50]
4 | < 20 | CC(C)(O)Cn1cnc2c(-c3cn[nH]c3)nc(-c3ccc(C(F)(F)F)nc3)cc2c1=O [Compound 51]
5 | < 20 | CC(C)(O)Cn1cnc2c(-c3cnsc3)nc(-c3ccc(C(F)(F)F)nc3)cc2c1=O [Compound 54]
6 | 20 to 50 | C[C@@H](CO)n1cnc2c(-c3cnsc3)nc(-c3ccc(C(F)(F)F)nc3)cc2c1=O [Compound 55]
7 | 20 to 50 | C[C@@H](CO)n1cnc2c(-c3cccnc3)nc(-c3cnc(C4CC4)s3)cc2c1=O [Compound 66]
8 | < 20 | CC(C)(O)Cn1cnc2c(-c3cccnc3)nc(-c3ccc(C4CC4)nc3)cc2c1=O [Compound 81]
9 | < 20 | Cn1cc(-c2nc(-c3ccc(C4CC4)nc3)cc3c(=O)n(CC(C)(C)O)cnc23)cn1 [Compound 82]
10 | < 20 | C[C@@H](CO)n1cnc2c(-c3cccnc3)nc(-c3cnc(C(F)(F)F)s3)cc2c1=O [Compound 85]
11 | < 20 | C[C@@H](CO)n1cnc2c(-c3cccnc3)nc(-c3cnc(C(F)(F)F)nc3)cc2c1=O [Compound 86]
12 | < 20 | Cn1cc(-c2nc(-c3ccc(C(F)(F)F)nc3)cc3c(=O)n([C@H]4COC[C@H]4O)cnc23)cn1 [Compound 88]
13 | < 20 | Cc1ncc(-c2cc3c(=O)n([C@@H](C)CO)cnc3c(-c3cccnc3)n2)s1 [Compound 89]
14 | < 20 | Cn1cc(-c2nc(-c3ccc(Cl)cc3)cc3c(=O)n([C@H]4COC[C@H]4O)cnc23)cn1 [Compound 92]
15 | < 20 | C[C@@H](CO)n1cnc2c(-c3cnn(C)c3)nc(-c3cnc(C(F)(F)F)nc3)cc2c1=O [Compound 95]
16 | < 20 | Cn1cc(-c2nc(-c3cnc(C(F)(F)F)nc3)cc3c(=O)n(CC(C)(C)O)cnc23)cn1 [Compound 99]

Row | CLint scaled at 1 μM [mL/min/kg] | SMILES
17 | < 20 | CC(C)(O)Cn1cnc2c(-c3cnsc3)nc(-c3ccc(C(F)(F)F)cn3)cc2c1=O [Compound 101, 3-(2-hydroxy-2-methylpropyl)-8-(isothiazol-4-yl)-6-(5-(trifluoromethyl)pyridin-2-yl)pyrido[3,4-d]pyrimidin-4(3H)-one]
18 | < 20 | C[C@@H](CO)n1cnc2c(-c3cnsc3)nc(-c3ccc(C(F)(F)F)cn3)cc2c1=O [Compound 102, (S)-3-(1-hydroxypropan-2-y1)-8-(isothiazol-4-yl)-6-(5-(trifluoromethyl)pyridin-2-yl)pyrido[3,4-d]pyrimidin-4(3H)-one]
19 | < 20 | O=c1c2cc(-c3ccc(C(F)(F)F)cn3)nc(-c3cccnc3)c2ncn1C[C@H](O)C(F)(F)F [Compound 104, (S)-8-(pyridin-3-yl)-3-(3,3,3-trifluoro-2-hydroxypropyl)-6-(5-(trifluoromethyl)pyridin-2-yl)pyrido[3,4-d]pyrimidin-4(3H)-one]
20 | < 20 | C[C@H](O)Cn1cnc2c(-c3cnn(C)c3)nc(-c3ccc(C(F)(F)F)nc3)cc2c1=O [Compound 109, (S)-3-(2-hydroxypropyl)-8-(1-methyl-1H-pyrazol-4-yl)-6-(6-(trifluoromethyl)pyridin-3-yl)pyrido[3,4-d]pyrimidin-4(3H)-one]
21 | < 20 | Cn1cc(-c2nc(-c3ccc(C(F)(F)F)nc3)cc3c(=O)n(C[C@@H](O)C(F)(F)F)cnc23)cn1 [Compound 110, (R)-8-(1-methyl-1H-pyrazol-4-yl)-3-(3,3,3-trifluoro-2-hydroxypropyl)-6-(6-(trifluoromethyl)pyridin-3-yl)pyrido[3,4-d]pyrimidin-4(3H)-one]
22 | < 20 | Cn1cc(-c2nc(-c3ccc(C(F)(F)F)nc3)cc3c(=O)n(C[C@H](O)C(F)(F)F)cnc23)cn1 [Compound 111, (S)-8-(1-methyl-1H-pyrazol-4-yl)-3-(3,3,3-trifluoro-2-hydroxypropyl)-6-(6-(trifluoromethyl)pyridin-3-y1)pyrido[3,4-d]pyrimidin-4(3H)-one]
23 | < 20 | C[C@@H](O)Cn1cnc2c(-c3cccnc3)nc(-c3ccc(C(F)(F)F)nc3)cc2c1=O [Compound 112, (R)-3-(2-hydroxypropyl)-8-(pyridin-3-yl)-6-(6-(trifluoromethyl)pyridin-3-yl)pyrido[3,4-d]pyrimidin-4(3H)-one]
24 | < 20 | Cn1cc(-c2nc(-c3ccc(C(F)(F)F)nc3)cc3c(=O)n([C@H]4COC[C@@H]4O)cnc23)cn1 [Compound 114, 3-((3S,4R)-4-hydroxytetrahydrofuran-3-yl)-8-(1-methyl-1H-pyrazol-4-yl)-6-(6-(trifluoromethyl)pyridin-3-yl)pyrido[3,4-d]pyrimidin-4(3H)-one]
25 | < 20 | Cn1cc(-c2nc(-c3ccc(C(F)(F)F)nc3)cc3c(=O)n([C@@H]4COC[C@H]4O)cnc23)cn1 [Compound 115, 3-((3R,4S)-4-hydroxytetrahydrofuran-3-y1)-8-(1-methyl-1H-pyrazol-4-y1)-6-(6-(trifluoromethyl)pyridin-3-yl)pyrido[3,4-d]pyrimidin-4(3H)-one]
26 | < 20 | Cn1cc(-c2nc(-c3ccc(Cl)cc3)cc3c(=O)n([C@H]4COC[C@@H]4O)cnc23)cn1 [Compound 116]
27 | < 20 | O=c1c2cc(-c3ccc(C(F)(F)F)nc3)nc(-c3cccnc3)c2ncn1[C@H]1COC[C@@H]1O [Compound 117]
28 | < 20 | O=c1c2cc(-c3ccc(C4CC4)nc3)nc(-c3cccnc3)c2ncn1C[C@H](O)C(F)(F)F [Compound 120, (S)-6-(6-cyclopropylpyridin-3-yl)-8-(pyridin-3-yl)-3-(3,3,3-trifluoro-2-hydroxypropyl)pyrido[3,4-d]pyrimidin-4(3H)-one]
29 | < 20 | O=c1c2cc(-c3ccc(C(F)(F)F)nc3)nc(-c3cccnc3)c2ncn1C[C@@H](O)C(F)(F)F [Compound 122, (R)-8-(pyridin-3-yl)-3-(3,3,3-trifluoro-2-hydroxypropyl)-6-(6-(trifluoromethyl)pyridin-3-yl)pyrido[3,4-d]pyrimidin-4(3H)-one]
30 | < 20 | O=c1c2cc(-c3ccc(OC(F)(F)F)cc3)nc(-c3cccnc3)c2ncn1C[C@H](O)C(F)(F)F [Compound 124, (S)-8-(pyridin-3-yl)-3-(3,3,3-trifluoro-2-hydroxypropyl)-6-(4-(trifluoromethoxy)phenyl)pyrido[3,4-d]pyrimidin-4(3H)-one]
31 | < 20 | O=c1c2cc(-c3ccc(C(F)(F)F)nc3)nc(-c3cccnc3)c2ncn1[C@H]1COC[C@H]1O [Compound 126, 3-((3S,4S)-4-hydroxytetrahydrofuran-3-yl)-8-(pyridin-3-yl)-6-(6-(trifluoromethyl)pyridin-3-yl)pyrido[3,4-d]pyrimidin-4(3H)-one]

Row | SMILES | CLint scaled at 1 μM [mL/min/kg]
32 | O=c1c2cc(-c3ccc(Cl)cc3)nc(-c3cccnc3)c2ncn1[C@@H]1COC[C@@H]1O (stereo in doubt) [Compound 71] | < 20
